# Data as given in patent US20220088016A1, “CANCER TREATMENT USING MULTI-TARGETED KINASE INHIBITOR IN COMBINATION OF PROTEIN KINASE BIOMARKERS” (ZHEJIANG CROWNMAB BIOTECH CO. LTD., priority 2019, published 2022).
# Tests used:
# Assay in all cases: Kinase profiling
# Type in all cases: binding
# [1] = target: ABL1 (F317L)-nonphosphorylated (Homo sapiens, UniProt P00519, F317L); conditions: read-out: % Ctrl @ 1000 nM
# [2] = target: ABL1 (Q252H)-phosphorylated (Homo sapiens, UniProt P00519, Q252H); conditions: read-out: % Ctrl @ 1000 nM
# [3] = target: ABL1-phosphorylated (Homo sapiens, UniProt P00519); conditions: read-out: % Ctrl @ 1000 nM
# [4] = target: ASK1 (Homo sapiens, UniProt Q99683); conditions: read-out: % Ctrl @ 1000 nM
# [5] = target: AXL (Homo sapiens, UniProt P30530); conditions: read-out: % Ctrl @ 1000 nM
# [6] = target: BMPR1B (Homo sapiens, UniProt O00238); conditions: read-out: % Ctrl @ 1000 nM
# [7] = target: BRSK1 (Homo sapiens, UniProt Q8TDC3); conditions: read-out: % Ctrl @ 1000 nM
# [8] = target: CDK4 (Homo sapiens, UniProt P11802); conditions: read-out: % Ctrl @ 1000 nM
# [9] = target: DYRK1B (Homo sapiens, UniProt Q9Y463); conditions: read-out: % Ctrl @ 1000 nM
# [10] = target: EPHB1 (Homo sapiens, UniProt P54762); conditions: read-out: % Ctrl @ 1000 nM
# [11] = target: ERBB2 (Homo sapiens, UniProt P04626); conditions: read-out: % Ctrl @ 1000 nM
# [12] = target: ERK2 (Homo sapiens, UniProt P28482); conditions: read-out: % Ctrl @ 1000 nM
# [13] = target: ERK5 (Homo sapiens, UniProt Q13164); conditions: read-out: % Ctrl @ 1000 nM
# [14] = target: FGFR2 (Homo sapiens, UniProt P21802); conditions: read-out: % Ctrl @ 1000 nM
# [15] = target: FGFR4 (Homo sapiens, UniProt P22455); conditions: read-out: % Ctrl @ 1000 nM
# [16] = system: FLT3 (ITD, F691L)
# [17] = target: FLT3 (N841I) (Homo sapiens, UniProt P36888, N841I); conditions: read-out: % Ctrl @ 1000 nM
# [18] = target: IRAK4 (Homo sapiens, UniProt Q9NWZ3); conditions: read-out: % Ctrl @ 1000 nM
# [19] = target: KIT (A829P) (Homo sapiens, UniProt P10721, A829P); conditions: read-out: % Ctrl @ 1000 nM
# [20] = target: T1, MAST1 (Homo sapiens, UniProt Q9Y2H9); conditions: read-out: % Ctrl @ 1000 nM
# T1 construct: T7 phage fusion (stated for most kinases of the panel only); made in house; host or cells: T7 phage in E. coli (BL21-derived) or HEK-293 cells
# [21] = target: T2, MELK (Homo sapiens, UniProt Q14680); conditions: read-out: % Ctrl @ 1000 nM
# T2 construct: T7 phage fusion (stated for most kinases of the panel only); made in house; host or cells: T7 phage in E. coli (BL21-derived) or HEK-293 cells
# [22] = target: T3, MET (M1250T) (Homo sapiens, UniProt P08581, M1250T); conditions: read-out: % Ctrl @ 1000 nM
# T3 construct: T7 phage fusion (stated for most kinases of the panel only); made in house; host or cells: T7 phage in E. coli (BL21-derived) or HEK-293 cells
# [23] = target: T4, MINK (Homo sapiens, UniProt Q8N4C8); conditions: read-out: % Ctrl @ 1000 nM
# T4 construct: T7 phage fusion (stated for most kinases of the panel only); made in house; host or cells: T7 phage in E. coli (BL21-derived) or HEK-293 cells
# [24] = target: T5, MTOR (Homo sapiens, UniProt P42345); conditions: read-out: % Ctrl @ 1000 nM
# T5 construct: T7 phage fusion (said for most assays); made in house
# [25] = target: T6, MYO3A (Homo sapiens, UniProt Q8NEV4); conditions: read-out: % Ctrl @ 1000 nM
# T6 construct: T7 phage fusion (said for most assays); made in house
# [26] = target: T7, NIM1 (Homo sapiens, UniProt Q8IY84); conditions: read-out: % Ctrl @ 1000 nM
# T7 construct: T7 phage fusion (said for most assays); made in house
# [27] = target: p38-gamma (Homo sapiens, UniProt P53778); conditions: read-out: % Ctrl @ 1000 nM
# [28] = target: PIK3CA (Homo sapiens, UniProt P42336); conditions: read-out: % Ctrl @ 1000 nM
# [29] = target: PIK3CA (I800L) (Homo sapiens, UniProt P42336, I800L); conditions: read-out: % Ctrl @ 1000 nM
# [30] = target: PLK1 (Homo sapiens, UniProt P53350); conditions: read-out: % Ctrl @ 1000 nM
# [31] = target: PRKG1 (Homo sapiens, UniProt Q13976); conditions: read-out: % Ctrl @ 1000 nM
# [32] = target: RET (V804M) (Homo sapiens, UniProt P07949, V804M); conditions: read-out: % Ctrl @ 1000 nM
# [33] = target: SNARK (Homo sapiens, UniProt Q9H093); conditions: read-out: % Ctrl @ 1000 nM
# [34] = target: SYK (Homo sapiens, UniProt P43405); conditions: read-out: % Ctrl @ 1000 nM
# [35] = target: TAK1 (Homo sapiens, UniProt O43318); conditions: read-out: % Ctrl @ 1000 nM
# [36] = target: TSSK1B (Homo sapiens, UniProt Q9BXA7); conditions: read-out: % Ctrl @ 1000 nM
# [37] = target: VRK2 (Homo sapiens, UniProt Q86Y07); conditions: read-out: % Ctrl @ 1000 nM
# [38] = target: WNK2 (Homo sapiens, UniProt Q9Y3S1); conditions: read-out: % Ctrl @ 1000 nM
# [39] = target: YANK2 (Homo sapiens, UniProt Q9NY57); conditions: read-out: % Ctrl @ 1000 nM
# YANK2, sequence (Q9NY57 whole entry): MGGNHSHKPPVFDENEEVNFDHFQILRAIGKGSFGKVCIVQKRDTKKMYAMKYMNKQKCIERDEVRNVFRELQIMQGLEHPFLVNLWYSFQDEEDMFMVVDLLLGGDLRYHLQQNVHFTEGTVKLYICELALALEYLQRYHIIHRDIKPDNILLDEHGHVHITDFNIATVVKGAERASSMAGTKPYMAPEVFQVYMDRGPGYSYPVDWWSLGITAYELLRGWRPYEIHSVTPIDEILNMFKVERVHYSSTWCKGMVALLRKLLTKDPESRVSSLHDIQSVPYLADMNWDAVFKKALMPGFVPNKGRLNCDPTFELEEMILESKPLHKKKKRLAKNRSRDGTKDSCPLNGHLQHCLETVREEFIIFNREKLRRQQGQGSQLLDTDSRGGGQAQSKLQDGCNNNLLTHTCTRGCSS
# IRAK4, sequence (Q9NWZ3 whole entry): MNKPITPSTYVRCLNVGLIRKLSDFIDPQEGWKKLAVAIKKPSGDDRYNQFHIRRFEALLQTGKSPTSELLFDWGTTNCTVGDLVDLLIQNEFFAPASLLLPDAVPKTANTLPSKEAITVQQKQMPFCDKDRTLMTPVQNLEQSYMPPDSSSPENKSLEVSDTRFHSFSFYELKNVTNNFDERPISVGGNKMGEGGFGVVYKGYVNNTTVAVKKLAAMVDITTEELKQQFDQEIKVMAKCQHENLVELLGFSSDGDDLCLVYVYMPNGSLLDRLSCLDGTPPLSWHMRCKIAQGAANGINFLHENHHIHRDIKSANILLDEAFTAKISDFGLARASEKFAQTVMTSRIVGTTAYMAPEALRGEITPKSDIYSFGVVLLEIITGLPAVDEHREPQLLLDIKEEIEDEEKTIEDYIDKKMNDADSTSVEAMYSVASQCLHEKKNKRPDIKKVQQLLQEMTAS
# ERBB2, sequence (P04626 23-1255): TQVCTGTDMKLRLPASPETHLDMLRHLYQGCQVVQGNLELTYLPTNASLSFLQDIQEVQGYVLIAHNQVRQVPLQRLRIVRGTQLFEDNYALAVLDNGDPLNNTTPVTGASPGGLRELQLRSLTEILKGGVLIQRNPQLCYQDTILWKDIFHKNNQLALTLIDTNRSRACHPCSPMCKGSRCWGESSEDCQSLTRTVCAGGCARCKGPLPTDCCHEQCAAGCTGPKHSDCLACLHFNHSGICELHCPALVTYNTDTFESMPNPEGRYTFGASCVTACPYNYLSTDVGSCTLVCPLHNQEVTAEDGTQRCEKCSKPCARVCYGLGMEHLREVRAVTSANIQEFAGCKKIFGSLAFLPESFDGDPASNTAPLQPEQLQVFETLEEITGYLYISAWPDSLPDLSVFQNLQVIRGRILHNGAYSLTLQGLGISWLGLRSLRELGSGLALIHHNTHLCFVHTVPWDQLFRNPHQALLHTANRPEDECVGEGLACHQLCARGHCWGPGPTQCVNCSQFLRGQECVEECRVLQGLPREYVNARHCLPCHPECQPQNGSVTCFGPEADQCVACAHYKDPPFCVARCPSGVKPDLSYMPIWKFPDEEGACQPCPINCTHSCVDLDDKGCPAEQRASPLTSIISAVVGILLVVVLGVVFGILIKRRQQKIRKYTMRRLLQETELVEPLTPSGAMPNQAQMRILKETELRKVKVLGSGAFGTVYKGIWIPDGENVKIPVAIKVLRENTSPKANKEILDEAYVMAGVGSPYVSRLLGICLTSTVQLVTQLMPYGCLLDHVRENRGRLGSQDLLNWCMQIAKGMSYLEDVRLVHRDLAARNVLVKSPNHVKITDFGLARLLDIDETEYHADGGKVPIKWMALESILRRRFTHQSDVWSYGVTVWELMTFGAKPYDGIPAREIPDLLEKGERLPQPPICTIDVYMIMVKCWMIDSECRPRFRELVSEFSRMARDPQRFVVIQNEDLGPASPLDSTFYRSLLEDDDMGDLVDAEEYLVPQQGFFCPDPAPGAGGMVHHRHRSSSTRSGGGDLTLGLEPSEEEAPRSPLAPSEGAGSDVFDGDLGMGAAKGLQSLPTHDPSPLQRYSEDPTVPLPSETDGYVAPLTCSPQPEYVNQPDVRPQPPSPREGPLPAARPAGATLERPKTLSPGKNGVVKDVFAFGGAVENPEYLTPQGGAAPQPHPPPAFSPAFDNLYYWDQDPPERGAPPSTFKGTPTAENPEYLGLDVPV
# PIK3CA (I800L), sequence (P42336 whole entry I800L): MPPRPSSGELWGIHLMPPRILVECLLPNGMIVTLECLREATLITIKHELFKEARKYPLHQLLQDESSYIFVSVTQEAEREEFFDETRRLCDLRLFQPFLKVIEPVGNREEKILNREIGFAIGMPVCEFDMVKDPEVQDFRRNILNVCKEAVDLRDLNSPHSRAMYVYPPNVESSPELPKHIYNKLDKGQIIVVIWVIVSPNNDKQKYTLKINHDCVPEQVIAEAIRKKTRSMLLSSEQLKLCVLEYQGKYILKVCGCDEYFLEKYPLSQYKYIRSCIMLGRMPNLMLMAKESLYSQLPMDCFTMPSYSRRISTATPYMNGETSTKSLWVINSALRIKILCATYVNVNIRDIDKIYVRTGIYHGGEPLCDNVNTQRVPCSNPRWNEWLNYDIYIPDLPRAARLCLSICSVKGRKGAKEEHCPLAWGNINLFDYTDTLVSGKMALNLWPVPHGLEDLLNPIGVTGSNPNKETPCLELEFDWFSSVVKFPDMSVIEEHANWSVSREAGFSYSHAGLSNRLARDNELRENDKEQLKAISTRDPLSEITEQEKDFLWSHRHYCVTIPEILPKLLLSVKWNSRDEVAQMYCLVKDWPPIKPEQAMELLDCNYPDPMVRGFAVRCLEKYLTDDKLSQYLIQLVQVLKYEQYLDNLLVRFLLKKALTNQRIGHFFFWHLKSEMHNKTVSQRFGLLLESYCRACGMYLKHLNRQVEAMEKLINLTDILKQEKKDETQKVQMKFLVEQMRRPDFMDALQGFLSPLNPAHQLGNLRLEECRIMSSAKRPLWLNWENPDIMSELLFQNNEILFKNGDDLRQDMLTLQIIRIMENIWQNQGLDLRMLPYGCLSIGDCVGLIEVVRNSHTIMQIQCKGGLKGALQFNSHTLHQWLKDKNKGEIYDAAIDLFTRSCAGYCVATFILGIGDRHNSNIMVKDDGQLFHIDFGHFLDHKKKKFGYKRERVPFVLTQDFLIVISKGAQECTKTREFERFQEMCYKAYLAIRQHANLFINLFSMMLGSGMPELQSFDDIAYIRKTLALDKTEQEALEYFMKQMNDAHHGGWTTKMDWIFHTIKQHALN
# T2 sequence (Q14680 whole entry, the tested form may be a part): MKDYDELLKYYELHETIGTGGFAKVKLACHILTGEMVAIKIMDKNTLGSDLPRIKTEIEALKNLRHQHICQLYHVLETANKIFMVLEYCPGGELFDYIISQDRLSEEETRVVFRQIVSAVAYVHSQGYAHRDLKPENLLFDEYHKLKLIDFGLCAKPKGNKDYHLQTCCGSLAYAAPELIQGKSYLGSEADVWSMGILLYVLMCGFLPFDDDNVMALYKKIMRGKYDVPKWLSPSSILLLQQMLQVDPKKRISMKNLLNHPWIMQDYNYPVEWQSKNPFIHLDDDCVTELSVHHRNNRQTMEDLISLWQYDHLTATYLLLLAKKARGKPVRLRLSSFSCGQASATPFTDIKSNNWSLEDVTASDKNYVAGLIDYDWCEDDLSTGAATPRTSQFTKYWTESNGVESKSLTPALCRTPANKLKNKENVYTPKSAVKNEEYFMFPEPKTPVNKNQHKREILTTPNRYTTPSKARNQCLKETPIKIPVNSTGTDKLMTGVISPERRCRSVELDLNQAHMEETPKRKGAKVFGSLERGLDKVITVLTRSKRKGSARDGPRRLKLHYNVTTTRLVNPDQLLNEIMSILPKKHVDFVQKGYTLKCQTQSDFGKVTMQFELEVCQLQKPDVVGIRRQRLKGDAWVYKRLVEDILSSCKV
# TAK1, sequence (O43318 whole entry): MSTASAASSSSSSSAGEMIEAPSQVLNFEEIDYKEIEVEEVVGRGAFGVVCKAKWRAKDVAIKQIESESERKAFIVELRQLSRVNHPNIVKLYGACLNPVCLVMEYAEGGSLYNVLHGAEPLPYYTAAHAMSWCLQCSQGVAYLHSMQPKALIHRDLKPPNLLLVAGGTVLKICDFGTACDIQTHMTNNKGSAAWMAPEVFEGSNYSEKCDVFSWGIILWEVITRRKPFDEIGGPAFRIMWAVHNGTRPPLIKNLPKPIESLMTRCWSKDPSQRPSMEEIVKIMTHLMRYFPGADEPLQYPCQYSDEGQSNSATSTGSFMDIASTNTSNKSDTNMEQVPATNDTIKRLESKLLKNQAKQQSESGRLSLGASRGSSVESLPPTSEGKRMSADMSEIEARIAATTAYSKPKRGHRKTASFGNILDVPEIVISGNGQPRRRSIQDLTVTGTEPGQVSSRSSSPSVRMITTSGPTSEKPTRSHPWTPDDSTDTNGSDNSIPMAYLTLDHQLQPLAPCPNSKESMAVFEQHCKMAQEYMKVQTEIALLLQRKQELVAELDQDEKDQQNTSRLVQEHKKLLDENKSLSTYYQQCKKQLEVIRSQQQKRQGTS
# ERK2, sequence (P28482 whole entry): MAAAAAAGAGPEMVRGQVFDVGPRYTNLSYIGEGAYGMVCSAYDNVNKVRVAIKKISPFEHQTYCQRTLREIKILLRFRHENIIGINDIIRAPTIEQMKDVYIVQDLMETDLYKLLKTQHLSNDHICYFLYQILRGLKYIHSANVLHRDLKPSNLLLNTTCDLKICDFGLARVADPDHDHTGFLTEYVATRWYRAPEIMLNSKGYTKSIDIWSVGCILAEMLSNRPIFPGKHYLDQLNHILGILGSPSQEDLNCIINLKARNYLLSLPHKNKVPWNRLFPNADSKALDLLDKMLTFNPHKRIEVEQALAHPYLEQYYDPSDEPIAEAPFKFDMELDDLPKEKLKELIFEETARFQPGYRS
# PIK3CA, sequence (P42336 whole entry): as the sequence (P42336 whole entry I800L) above, with L800I counted along it
smiles,measurement,setting,value
Cc1cc(Oc2cc(NC(=O)C3CC3)ncn2)ccc1NC(=O)Nc1ccc(Cl)c(C(F)(F)F)c1 [CBT-102],remaining activity at 1 µM,[1],16%
same,remaining activity at 1 µM,[2],82%
same,remaining activity at 1 µM,[3],67%
same,remaining activity at 1 µM,[4],91%
same,remaining activity at 1 µM,[5],56%
same,remaining activity at 1 µM,[6],99%
same,remaining activity at 1 µM,[7],95%
same,remaining activity at 1 µM,[8],100%
same,remaining activity at 1 µM,[9],100%
same,remaining activity at 1 µM,[10],38%
same,remaining activity at 1 µM,[11],93%
same,remaining activity at 1 µM,[12],97%
same,remaining activity at 1 µM,[13],88%
same,remaining activity at 1 µM,[14],62%
same,remaining activity at 1 µM,[15],92%
same,% Ctrl @ 1000 nM,[16],86%
same,remaining activity at 1 µM,[17],0%
same,remaining activity at 1 µM,[18],93%
same,remaining activity at 1 µM,[19],16%
same,remaining activity at 1 µM,[20],86%
same,remaining activity at 1 µM,[21],84%
same,remaining activity at 1 µM,[22],84%
same,remaining activity at 1 µM,[23],35%
same,remaining activity at 1 µM,[24],94%
same,remaining activity at 1 µM,[25],81%
same,remaining activity at 1 µM,[26],82%
same,remaining activity at 1 µM,[27],28%
same,remaining activity at 1 µM,[28],100%
same,remaining activity at 1 µM,[29],91%
same,remaining activity at 1 µM,[30],95%
same,remaining activity at 1 µM,[31],100%
same,remaining activity at 1 µM,[32],3.3%
same,remaining activity at 1 µM,[33],100%
same,remaining activity at 1 µM,[34],100%
same,remaining activity at 1 µM,[35],12%
same,remaining activity at 1 µM,[36],87%
same,remaining activity at 1 µM,[37],100%
same,remaining activity at 1 µM,[38],100%
same,remaining activity at 1 µM,[39],100%
